Laboratory results: ChEMBL document CHEMBL4765292, “Flexible diaminodihydrotriazine inhibitors of Plasmodium falciparum dihydrofolate reductase: Binding strengths, modes of binding and their antimalarial activities” (Eur J Med Chem, 2020)

Legend:
[1] = Therapeutic index, ratio of IC50 for African green monkey Vero cells to IC50 for Plasmodium falciparum TM4/8.2; type: toxicity; conditions: against Plasmodium falciparum TM4/8.2, read-out: Ratio IC50
[2] = system: DHFR (human against Plasmodium falciparum DHFR); assay: Selectivity index, ratio of Ki for human DHFR expressed in Escherichia coli BL21 to Ki for Plasmodium falciparum DHFR expressed in Escherichia coli BL21; type: toxicity; conditions: read-out: Ratio Ki
[3] = Inhibition of Plasmodium falciparum DHFR expressed in Escherichia coli BL21 using DHF as substrate by spectrophotometric analysis
Plasmodium falciparum [4] = assay: Antimalarial activity against Plasmodium falciparum W2 harboring DHFR N51I/C59R/S108N mutant infected in human erythrocytes assessed as reduction in [3H]-hypoxanthine incorporation pretreated for 20 hrs followed by [3H]-hypoxanthine addition measured after 20 hrs by radioactivity method; type: functional, organism-based; conditions: W2, Erythrocyte
[5] = Inhibition of Plasmodium falciparum DHFR A16V/S108T mutant expressed in Escherichia coli BL21 using DHF as substrate by spectrophotometric analysis
[6] = Inhibition of Plasmodium falciparum DHFR N51I/C59R/S108N/I164L mutant expressed in Escherichia coli BL21 using DHF as substrate by spectrophotometric analysis
[7] = Inhibition of Plasmodium falciparum DHFR […] mutant expressed in Escherichia coli BL21 using DHF as substrate by spectrophotometric analysis
[8] = Therapeutic index, ratio of IC50 for African green monkey Vero cells to IC50 for Plasmodium falciparum K1CB1 harboring DHFR […] mutant; type: toxicity; conditions: read-out: Ratio IC50
[9] = Inhibition of Plasmodium falciparum DHFR C59R/S108N/I164L mutant expressed in Escherichia coli BL21 using DHF as substrate by spectrophotometric analysis
Plasmodium falciparum [10] = assay: Antimalarial activity against Plasmodium falciparum V1/S harboring DHFR N51I/C59R/S108N/I164L mutant infected in human erythrocytes assessed as reduction in [3H]-hypoxanthine incorporation pretreated for 20 hrs followed by [3H]-hypoxanthine addition measured after 20 hrs by radioactivity method; type: functional, organism-based; conditions: Erythrocyte
[11] = Therapeutic index, ratio of IC50 for African green monkey Vero cells to IC50 for Plasmodium falciparum V1/S harboring DHFR N51I/C59R/S108N/I164L mutant; type: toxicity; conditions: read-out: Ratio IC50
[12] = system: DHFR (human against Plasmodium falciparum DHFR double mutant); assay: Selectivity index, ratio of Ki for human DHFR expressed in Escherichia coli BL21 to Ki for Plasmodium falciparum DHFR double mutant expressed in Escherichia coli BL21; type: toxicity; conditions: read-out: Ratio Ki
Vero = assay: Cytotoxicity against African green monkey Vero cells assessed as reduction in cell viability incubated for 72 hrs by SRB assay; type: cell-based; conditions: Chlorocebus sabaeus
Plasmodium falciparum [13] = assay: Antimalarial activity against Plasmodium falciparum CsI-2 harboring DHFR C59R/S108N/I164L mutant infected in human erythrocytes assessed as reduction in [3H]-hypoxanthine incorporation pretreated for 20 hrs followed by [3H]-hypoxanthine addition measured after 20 hrs by radioactivity method; type: functional, organism-based; conditions: CsI-2, Erythrocyte
[14] = Inhibition of Plasmodium falciparum DHFR N51I/C59R/S108N mutant expressed in Escherichia coli BL21 using DHF as substrate by spectrophotometric analysis
Plasmodium falciparum [15] = assay: Antimalarial activity against Plasmodium falciparum TM4/8.2 infected in human erythrocytes assessed as reduction in [3H]-hypoxanthine incorporation pretreated for 20 hrs followed by [3H]-hypoxanthine addition measured after 20 hrs by radioactivity method; type: functional, organism-based
Plasmodium falciparum [16] = assay: Antimalarial activity against Plasmodium falciparum K1CB1 harboring DHFR […] mutant infected in human erythrocytes assessed as reduction in [3H]-hypoxanthine incorporation pretreated for 20 hrs followed by [3H]-hypoxanthine addition measured after 20 hrs by radioactivity method; type: functional, organism-based; conditions: K1CB1, Erythrocyte
[17] = system: DHFR (human against Plasmodium falciparum DHFR N51I/C59R/S108N/I164L mutant); assay: Selectivity index, ratio of Ki for human DHFR expressed in Escherichia coli BL21 to Ki for Plasmodium falciparum DHFR N51I/C59R/S108N/I164L mutant expressed in Escherichia coli BL21; type: toxicity; conditions: read-out: Ratio Ki
Plasmodium falciparum [18] = assay: Antimalarial activity against Plasmodium falciparum T9/94 RC17 harboring DHFR A16V/S108T mutant infected in human erythrocytes assessed as reduction in [3H]-hypoxanthine incorporation pretreated for 20 hrs followed by [3H]-hypoxanthine addition measured after 20 hrs by radioactivity method; type: functional, organism-based; conditions: T9/94 RC17, Erythrocyte

Structure (SMILES)	selectivity ratio [1]	selectivity ratio [2]	Ki [3] [nM]	IC50 (Plasmodium falciparum [4]) [nM]	Ki [5] [nM]	Ki [6] [nM]	Ki [7] [nM]	selectivity ratio [8]	Ki [9] [nM]	IC50 (Plasmodium falciparum [10]) [nM]	selectivity ratio [11]	selectivity ratio [12]	IC50 (Vero) [µM]	IC50 (Plasmodium falciparum [13]) [nM]	Ki [14] [nM]	IC50 (Plasmodium falciparum [15]) [nM]	IC50 (Plasmodium falciparum [16]) [nM]	selectivity ratio [17]	IC50 (Plasmodium falciparum [18]) [nM]
CC1N=C(N)N=C(N)N1OCCCOc1ccc(F)cc1Cl (configuration not stated)	> 2170	229	0.4	33	1.8	1.3	0.7	> 9620	1.6	290	> 172	131	> 50	47	0.8	23	5.2	70	
Cc1ccc(C)c(NCCCON2C(N)=NC(N)=NC2(C)C)c1	> 1920	155	0.8	43	4.1	3.8	1.1	> 500	1.5	350	> 143	113	> 50	310	1.4	26	100	33	
CC1N=C(N)N=C(N)N1OCCCOc1cccc(Cl)c1Cl (configuration not stated)	4550	49	0.4	150	1.8	1.2	0.6	1000	1.2	210	28	33	5.91	62	0.6	1.3	5.9	16	
CN(CCCON1C(N)=NC(N)=NC1(C)C)c1ccc(Cl)c(Cl)c1	64000	30	1.3	28	4	3.9	1	1040	2.3	290	115	39	33.3	140	1.5	0.52	32	10	
CC1(C)N=C(N)N=C(N)N1OCCCOc1ccc(F)cc1Cl	629000	94	0.4	0.24	1.8	1.2	0.9	82300	0.9	3	7130	42	21.4	3.1		0.034	0.26	31	0.28
CC1(C)N=C(N)N=C(N)N1OCCSc1ccc(Cl)cc1	4000	84	0.3	24	1.5	3	0.8	378	1.8	540	26	32	14	32	0.8	3.5	37	8	
CC1(C)N=C(N)N=C(N)N1OCCCOc1ccc(Cl)cc1	607	49	0.6	2.1	1.2	1	0.9	89	0.9	23	7	32	0.17	3.9		0.28	1.9	29	0.24
CN(CCCON1C(N)=NC(N)=NC1(C)C)c1ccc(Cl)cc1	26500	22	1.5	24	3.4	3.4	1.4	918	2	420	107	24	45	170		1.7	49	10	3.2
CC1(C)NC(N)=NC(=N)N1OCCc1ccccc1	400	39	1.1	240	7.1	17	2	308	12	720	17	21	12	300	2.9	30	39	3	
CC1N=C(N)N=C(N)N1OCCCOc1ccc(Cl)cc1 (configuration not stated)	> 1670	290	0.4	120	1.9	1.8	0.7	> 1720	1.4	820	> 61	166	> 50	380	0.9	30	29	64	
CC1(C)N=C(N)N=C(N)N1OCCCSc1cccc(Cl)c1	3000	34	0.7	8.1	3.4	1	0.8	709	0.9	77	51	30	3.9	42		1.3	5.5	24	2.4
CC1(C)N=C(N)N=C(N)N1OCCCc1ccccc1	772	36	1.1	39	3.1	5	1.3	323	2.8	90	79	30	7.1	250	1.2	9.2	22	8	
CCN(CC)CCCON1C(N)=NC(N)=NC1(C)C	> 2080	230	1	70	9.7	7.9	1.7	> 1560	5.5	800	> 63	135	> 50	140	2.1	24	32	29	
CC1(C)NC(N)=NC(=N)N1OCCCCOc1ccccc1	3380	57	0.8	46	3.2	2	1.3	297	1.7	220	45	35	9.8	220	1.6	2.9	33	23	
